Reference: patent publication US6472348B1, “Pyridone derivatives and herbicides” (Kumiai Chemical Industry Co., Ltd., priority 1996, dated 2002)

What was measured:
Assay type in all cases: in vivo
barnyardgrass (Ec) [1] = assay: Test Example 1: herbicidal effects by paddy field soil treatment; details: 100 g of the active ingredient per 10 ares, 21st day after the application, index 0-5 of Table 47;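 note: grade of growth control; 5 = at least 90%; 4 = 70 to 90%; 3 = 50 to 70%; 2 = 30 to 50%; 1 = 10 to 30%; 0 = under 10%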
Procedure, shortened: (§1)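 Scoring of herbicidal effect came 21 days after application of 100 g active ingredient per 10 ares to flooded (3 cm) paddy-soil pots sown with barnyardgrass, monochoria and bulrush, kept in a greenhouse.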

bulrush (Sc) = assay: as above; details: 100 g of the active ingredient per 10 ares, 21st day after the application, index 0-5 of Table 47;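 note: grade of growth control; 5 = at least 90%; 4 = 70 to 90%; 3 = 50 to 70%; 2 = 30 to 50%; 1 = 10 to 30%; 0 = under 10%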
Procedure, shortened: as §1

monochoria (Mo) = assay: as above; details: 100 g of the active ingredient per 10 ares, 21st day after the application, index 0-5 of Table 47;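 note: grade of growth control; 5 = at least 90%; 4 = 70 to 90%; 3 = 50 to 70%; 2 = 30 to 50%; 1 = 10 to 30%; 0 = under 10%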
Procedure, shortened: as §1

Digitaria ciliaris (Di) = assay: Test Example 2: herbicidal effects by upland field soil treatment; details: 100 g of the active ingredient per 10 ares;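 note: grade of growth control; 5 = at least 90%; 4 = 70 to 90%; 3 = 50 to 70%; 2 = 30 to 50%; 1 = 10 to 30%; 0 = under 10%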
Text: (§2) (Test on Herbicidal Effects by Upland Field Soil Treatment)

barnyardgrass (Ec) [2] = assay: as above; details: 100 g of the active ingredient per 10 ares
Text: as §2

[3] = system: common lambsquarters (Ch); assay: as above; details: 100 g of the active ingredient per 10 ares
Text: as §2

pale smartweed (Po) [4] = assay: as above; details: 100 g of the active ingredient per 10 ares
Text: as §2

rice flatsedge (Ci) [5] = assay: as above; details: 100 g of the active ingredient per 10 ares
Text: as §2

slender amaranth (Am) [6] = assay: as above; details: 100 g of the active ingredient per 10 ares
Text: as §2

Diaitaria ciliaris (Di) = assay: Test Example 3: herbicidal effects by upland field foliage treatment; parameters: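 grade of growth control; 5 = at least 90%; 4 = 70 to 90%; 3 = 50 to 70%; 2 = 30 to 50%; 1 = 10 to 30%; 0 = under 10%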
Procedure, shortened: (§3)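 Test plants had been raised from seed for 2 weeks in a greenhouse, in soil-covered sand pots of 120 cm^2, and were returned there after spraying.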

barnyardgrass (Ec) [7] = assay: as above; parameters: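 grade of growth control; 5 = at least 90%; 4 = 70 to 90%; 3 = 50 to 70%; 2 = 30 to 50%; 1 = 10 to 30%; 0 = under 10%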
Procedure, shortened: as §3

[8] = system: common lambsquarters (Ch); assay: as above; parameters: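 grade of growth control; 5 = at least 90%; 4 = 70 to 90%; 3 = 50 to 70%; 2 = 30 to 50%; 1 = 10 to 30%; 0 = under 10%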
Procedure, shortened: as §3

pale smartweed (Po) [9] = assay: as above; parameters: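 grade of growth control; 5 = at least 90%; 4 = 70 to 90%; 3 = 50 to 70%; 2 = 30 to 50%; 1 = 10 to 30%; 0 = under 10%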
Procedure, shortened: as §3

rice flatsedge (Ci) [10] = assay: as above; parameters: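 grade of growth control; 5 = at least 90%; 4 = 70 to 90%; 3 = 50 to 70%; 2 = 30 to 50%; 1 = 10 to 30%; 0 = under 10%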
Procedure, shortened: as §3

slender amaranth (Am) [11] = assay: as above; parameters: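 grade of growth control; 5 = at least 90%; 4 = 70 to 90%; 3 = 50 to 70%; 2 = 30 to 50%; 1 = 10 to 30%; 0 = under 10%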
Procedure, shortened: as §3

[12] = 21st day after the application, index 0-5 of Table 47
[13] = 100 g of the active ingredient per 10 ares, evaluated on the 14th day after treatment
[14] = evaluated on the 21st day after application
[15] = 100 g active ingredient per 10 ares, evaluated 14th day after treatment

Row | Structure (SMILES) | Herbicidal effects Ec (barnyardgrass (Ec) [1]) | Herbicidal effects Sc (bulrush (Sc)) | Herbicidal effects Mo (monochoria (Mo)) | Herbicidal effects Di (Digitaria ciliaris (Di); [12]) | Herbicidal effects Ec (barnyardgrass (Ec) [2]; [12]) | Herbicidal effects Ch [3, 12] | Herbicidal effects Po (pale smartweed (Po) [4]; [12]) | Herbicidal effects Ci (rice flatsedge (Ci) [5]; [12]) | Herbicidal effects Am (slender amaranth (Am) [6]; [12]) | Herbicidal effects Di (Diaitaria ciliaris (Di); [13]) | Herbicidal effects Ec (barnyardgrass (Ec) [7]; [13]) | Herbicidal effects Ch [8, 13] | Herbicidal effects Po (pale smartweed (Po) [9]; [13]) | Herbicidal effects Ci (rice flatsedge (Ci) [10]; [13]) | Herbicidal effects Am (slender amaranth (Am) [11]; [13]) | Herbicidal effects Di (Digitaria ciliaris (Di); [14]) | Herbicidal effects Ec (barnyardgrass (Ec) [2]; [14]) | Herbicidal effects Ch [3, 14] | Herbicidal effects Po (pale smartweed (Po) [4]; [14]) | Herbicidal effects Ci (rice flatsedge (Ci) [5]; [14]) | other results
1 | Cn1c(C(F)(F)F)ccc(-c2cc(C(=O)[O-])c(Cl)cc2F)c1=O.[Na+] [1-144] | 5 | 5 | 5 | 5 | 5 | 5 | 5 | 5 | 5 | 5 | 5 | 5 | 5 | 5 | 5 | – | – | – | – | – | –
2 | CCCCOC(=O)COc1cc(-c2ccc(C(F)(F)F)n(C)c2=O)c(F)cc1Cl [1-148] | 5 | 5 | 5 | 5 | 5 | 5 | 5 | 5 | 5 | 5 | 5 | 5 | 5 | 5 | 5 | – | – | – | – | – | –
3 | CCCCCCOC(=O)COc1cc(-c2ccc(C(F)(F)F)n(C)c2=O)c(F)cc1Cl [1-149] | 5 | 5 | 5 | 5 | 5 | 5 | 5 | 5 | 5 | 5 | 5 | 5 | 5 | 5 | 5 | – | – | – | – | – | –
4 | CC=CCOc1cc(-c2ccc(C(F)(F)F)n(C)c2=O)c(F)cc1Cl [1-152] | 5 | 5 | 5 | 5 | 5 | 5 | 5 | 5 | 5 | 5 | 5 | 5 | 5 | 5 | 5 | – | – | – | – | – | –
5 | COC(=O)c1cc(-c2ccc(C(F)(F)F)n(C)c2=O)c(F)cc1Cl [1-157] | 5 | 5 | 5 | 5 | 5 | 5 | 5 | 5 | 5 | 5 | 5 | 5 | 5 | 5 | 5 | – | – | – | – | – | –
6 | CC(Oc1cc(-c2ccc(C(F)(F)F)n(C)c2=O)c(F)cc1Cl)C1CC1 (stereo not drawn) [1-161] | 5 | 5 | 5 | 5 | 5 | 5 | 5 | 5 | 5 | 5 | 5 | 5 | 5 | 5 | 5 | – | – | – | – | – | –
7 | CCOCCOc1cc(-c2ccc(C(F)(F)F)n(C)c2=O)c(F)cc1Cl [1-163] | 5 | 5 | 5 | 5 | 5 | 5 | 5 | 5 | 5 | 5 | 5 | 5 | 5 | 5 | 5 | – | – | – | – | – | –
8 | Cn1c(C(F)(F)F)ccc(-c2cc(C=NO)c(Cl)cc2F)c1=O [1-164] | 5 | 5 | 5 | 5 | 5 | 5 | 5 | 5 | 5 | 5 | 5 | 5 | 5 | 5 | 5 | – | – | – | – | – | –
9 | Cn1c(C(F)(F)F)ccc(-c2cc(SC3CCCO3)c(Cl)cc2F)c1=O (stereo not drawn) [1-165] | 5 | 5 | 5 | 5 | 5 | 5 | 5 | 5 | 5 | 5 | 5 | 5 | 5 | 5 | 5 | – | – | – | – | – | –
10 | CCCCOc1cc(-c2ccc(C(F)(F)F)n(C)c2=O)c(F)cc1Cl [1-166] | 5 | 5 | 5 | 5 | 5 | 5 | 5 | 5 | 5 | 5 | 4 | 5 | 5 | 5 | 5 | – | – | – | – | – | –
11 | CC(C)COc1cc(-c2ccc(C(F)(F)F)n(C)c2=O)c(F)cc1Cl [1-168] | 5 | 5 | 5 | 5 | 5 | 5 | 5 | 5 | 5 | 5 | 5 | 5 | 5 | 5 | 5 | – | – | – | – | – | –
12 | CC(C)OCCOc1cc(-c2ccc(C(F)(F)F)n(C)c2=O)c(F)cc1Cl [1-169] | 5 | 5 | 5 | – | – | – | – | – | – | 5 | 5 | 5 | 5 | 5 | 5 | 5 | 5 | 5 | 5 | 5 | Herbicidal effects Am (slender amaranth (Am) [6]; [14]): 5
13 | CC(C)=CCOc1cc(-c2ccc(C(F)(F)F)n(C)c2=O)c(F)cc1Cl [1-174] | 5 | 5 | 5 | – | – | – | – | – | – | 5 | 5 | 5 | 5 | 5 | 5 | 5 | 5 | 5 | 5 | 5 | Herbicidal effects Am (slender amaranth (Am) [6]; [14]): 5
14 | CC#CCOc1cc(-c2ccc(C(F)(F)F)n(C)c2=O)c(F)cc1Cl [1-175] | 5 | 5 | 5 | – | – | – | – | – | – | 5 | 5 | 5 | 5 | 5 | 5 | 5 | 5 | 5 | 5 | 5 | Herbicidal effects Am (slender amaranth (Am) [6]; [14]): 5
15 | C=CCOc1cc(Cl)cc(F)c1-c1ccc(C(F)(F)F)n(C)c1=O [1′-3] | 5 | 4 | 5 | – | – | – | – | – | – | – | – | – | – | – | – | 5 | 5 | 5 | 5 | 5 | Herbicidal effects Am (slender amaranth (Am) [6]; [14]): 5; Herbicidal effects Di (Diaitaria ciliaris (Di); [15]): 5; Herbicidal effects Ec (barnyardgrass (Ec) [7]; [15]): 5; Herbicidal effects Ch [8, 15]: 5; Herbicidal effects Po (pale smartweed (Po) [9]; [15]): 5; Herbicidal effects Ci (rice flatsedge (Ci) [10]; [15]): 5; Herbicidal effects Am (slender amaranth (Am) [11]; [15]): 5
16 | C#CC(CC)Oc1cc(Cl)cc(F)c1-c1ccc(C(F)(F)F)n(C)c1=O (stereo not drawn) [1′-6] | 5 | 5 | 5 | – | – | – | – | – | – | – | – | – | – | – | – | 5 | 5 | 5 | 5 | 5 | Herbicidal effects Am (slender amaranth (Am) [6]; [14]): 5; Herbicidal effects Di (Diaitaria ciliaris (Di); [15]): 5; Herbicidal effects Ec (barnyardgrass (Ec) [7]; [15]): 5; Herbicidal effects Ch [8, 15]: 5; Herbicidal effects Po (pale smartweed (Po) [9]; [15]): 5; Herbicidal effects Ci (rice flatsedge (Ci) [10]; [15]): 5; Herbicidal effects Am (slender amaranth (Am) [11]; [15]): 5
